From patent US8492384B2 (Korea Institute of Science and Technology, priority 2008, dated 2013) come the findings set out here.

The term IC50 denotes the concentration at which inhibition is half-maximal.

The target of one test is T1, α1G T-type calcium channels (Homo sapiens, UniProt O43497).
T1 construct: host or cells: HEK293
T1 sequence (O43497 whole entry): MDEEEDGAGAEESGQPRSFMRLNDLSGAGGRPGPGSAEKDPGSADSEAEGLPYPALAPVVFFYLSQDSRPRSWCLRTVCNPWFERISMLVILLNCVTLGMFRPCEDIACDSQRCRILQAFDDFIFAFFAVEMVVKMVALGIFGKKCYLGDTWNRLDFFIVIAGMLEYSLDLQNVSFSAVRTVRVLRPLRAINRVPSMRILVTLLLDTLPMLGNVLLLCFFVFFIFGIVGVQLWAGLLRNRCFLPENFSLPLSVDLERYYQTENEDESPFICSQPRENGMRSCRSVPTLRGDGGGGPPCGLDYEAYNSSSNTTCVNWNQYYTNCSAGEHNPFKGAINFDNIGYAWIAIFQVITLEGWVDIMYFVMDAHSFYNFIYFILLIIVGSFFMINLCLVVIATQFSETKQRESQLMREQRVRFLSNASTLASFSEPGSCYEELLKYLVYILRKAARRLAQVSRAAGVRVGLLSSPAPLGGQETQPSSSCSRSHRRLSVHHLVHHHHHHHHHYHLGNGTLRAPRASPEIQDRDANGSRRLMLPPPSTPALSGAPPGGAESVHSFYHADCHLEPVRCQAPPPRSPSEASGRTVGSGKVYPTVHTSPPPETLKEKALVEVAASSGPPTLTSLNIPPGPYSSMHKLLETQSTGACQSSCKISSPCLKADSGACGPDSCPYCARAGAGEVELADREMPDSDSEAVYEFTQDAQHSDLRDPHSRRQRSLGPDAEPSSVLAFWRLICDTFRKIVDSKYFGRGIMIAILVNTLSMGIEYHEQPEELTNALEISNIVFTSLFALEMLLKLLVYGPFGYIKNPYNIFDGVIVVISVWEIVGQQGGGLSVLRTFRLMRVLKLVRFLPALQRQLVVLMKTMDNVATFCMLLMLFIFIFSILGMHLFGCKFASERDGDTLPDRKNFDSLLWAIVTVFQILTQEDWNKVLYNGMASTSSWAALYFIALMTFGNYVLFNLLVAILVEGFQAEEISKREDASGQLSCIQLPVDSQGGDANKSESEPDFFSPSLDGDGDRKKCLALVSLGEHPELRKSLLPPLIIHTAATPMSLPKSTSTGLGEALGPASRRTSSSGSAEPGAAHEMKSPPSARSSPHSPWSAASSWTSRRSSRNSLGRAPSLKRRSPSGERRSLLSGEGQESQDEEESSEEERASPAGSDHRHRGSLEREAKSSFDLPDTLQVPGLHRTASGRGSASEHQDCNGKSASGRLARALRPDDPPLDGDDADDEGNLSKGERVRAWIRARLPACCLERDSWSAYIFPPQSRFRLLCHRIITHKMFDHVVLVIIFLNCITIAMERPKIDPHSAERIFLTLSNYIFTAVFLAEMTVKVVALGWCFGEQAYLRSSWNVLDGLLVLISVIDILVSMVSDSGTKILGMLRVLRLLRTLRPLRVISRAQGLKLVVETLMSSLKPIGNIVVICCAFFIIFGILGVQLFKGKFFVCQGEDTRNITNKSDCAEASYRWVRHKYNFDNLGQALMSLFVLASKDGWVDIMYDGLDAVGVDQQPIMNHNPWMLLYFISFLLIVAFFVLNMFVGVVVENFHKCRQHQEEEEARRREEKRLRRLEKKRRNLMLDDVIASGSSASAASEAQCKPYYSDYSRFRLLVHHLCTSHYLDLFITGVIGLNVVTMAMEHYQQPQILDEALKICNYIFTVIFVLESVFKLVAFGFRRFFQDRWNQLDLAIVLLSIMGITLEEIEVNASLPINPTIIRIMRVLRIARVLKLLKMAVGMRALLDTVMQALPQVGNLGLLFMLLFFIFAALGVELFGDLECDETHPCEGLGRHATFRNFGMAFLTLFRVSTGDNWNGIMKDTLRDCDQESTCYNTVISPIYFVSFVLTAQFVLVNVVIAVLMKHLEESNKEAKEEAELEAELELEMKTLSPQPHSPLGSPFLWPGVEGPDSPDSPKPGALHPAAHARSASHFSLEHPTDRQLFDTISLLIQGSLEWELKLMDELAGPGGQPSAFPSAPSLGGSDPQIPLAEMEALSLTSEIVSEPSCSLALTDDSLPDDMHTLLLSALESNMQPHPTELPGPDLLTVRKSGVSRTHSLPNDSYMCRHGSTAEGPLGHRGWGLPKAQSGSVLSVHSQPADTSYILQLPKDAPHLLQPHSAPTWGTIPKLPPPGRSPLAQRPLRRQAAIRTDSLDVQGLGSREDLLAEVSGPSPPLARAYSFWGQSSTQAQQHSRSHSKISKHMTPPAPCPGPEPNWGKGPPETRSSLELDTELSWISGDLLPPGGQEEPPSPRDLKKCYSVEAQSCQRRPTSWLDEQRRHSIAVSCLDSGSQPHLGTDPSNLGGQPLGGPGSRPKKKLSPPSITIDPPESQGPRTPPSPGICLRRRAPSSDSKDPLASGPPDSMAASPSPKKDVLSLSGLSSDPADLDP
As to the kind of experiment: T-type calcium channel activity using the FDSS6000 (HTS, Fluo-3/AM, KCl-induced intracellular calcium change). It counts as cell-based. Particulars: percent inhibition at 10 μM; HEK293 cells stably expressing α1G T-type calcium channels and Kir2.1; KCl 75 mM activation. The protocol: (§1) The novel compounds of the present invention presented as the formula 1 were tested for their antagonistic activities against T-type calcium channels using the methods described below. More specifically, the synthesized compounds were screened as follows: First, as a primary screening, the compounds having 40% or higher of antagonistic activities against T-type calcium channels were selected using the FDSS6000, a high throughput screening (HTS) device. Then, as a secondary screening, the IC50 (effective inhibitory concentration) values were obtained using the electrophysiological methods.
1) Methods for the Measurements of T-Type Calcium Channel Activity Using the FDSS6000
12 to 24 hours prior to the FDSS-based HTS assay, HEK293 cells stably expressing both α1G T-type calcium channels and Kir2.1 channels (α1G cell line: KCTC 10519BP, KRIBB (Korea Research Institute of Bioscience and Biotechnology) (GENE BANK) were seeded onto the 96-well plate coated with poly-L-lysine (0.05 mg/mL) at a density of 4×10^4 cells/well using a cell distributor (Titertek, USA). On the following day, the cells attached onto the 96-well plate were washed three times with a HEPES-buffered solution (150 mM NaCl, 5 mM KCl, 1 mM MgCl2, 2 mM CaCl2, 10 mM HEPES, 10 mM glucose, and pH 7.4) using an automatic 96-well plate washer (BioTek, USA), and then labeled with a fluorescent calcium indicator dye, Fluo-3/AM (5 μM) and 0.001% Pluronic F-127 in a HEPES-buffered solution at room temperature for 1 hour and then washed again with a HEPES-buffered solution twice. 10 minutes prior to the FDSS6000 measurements, the cells was washed with a HEPES-buffered solution containing 10 mM CaCl2 once and the final volume was adjusted.
In addition to the 96-well plates with cells, the two drug plates were prepared: one containing KCl (final concentration of 75 mM) for the activation of T-type calcium channels, and the other containing testing compounds (blocking agents of T-type calcium channels). Since most cell-based HTS devices are provided with a liquid application system for drug injection but not with a liquid absorption system, the KCl solution and the blocking agents for screening were prepared at concentrations five times higher than the final concentrations in the 10 mM CaCl2 HEPES-buffered solution, and then diluted in the cell plate, and the activities were measured. The specific method of the FDSS6000 measurements is as follows: For the FDSS6000 measurements, after the 20-sec baseline recordings, cells were preincubated with drugs for 75 seconds and the change in intracellular calcium concentration induced by KCl was measured. The percent inhibition by a test compound was calculated as integrated values of 340/380 fluorescent ratio of untreated and drug-treated cells. The control drug was 10 μM of Mibefradil®.
In details, cells were selectively exposed to 340 nm and 380 nm light excited by 4 xenon lamps installed in FDSS6000 using a computer-controlled filter wheel. The emitter fluorescence light through a 515 nm long-pass filter was passed by a freezing digital CCD camera mounted on the device. Data were collected every 1.23 seconds, and an average value of 340/380 fluorescent ratio for each well was obtained using a digital fluorescent analyzer. Data acquisition and analysis were performed using a program provided by Hamamatsu Photonics.
A general note: Calcium assays in cells follow changes in intracellular calcium, usually with a dye or a luminescent sensor.
Turning to “1-N-{2-[4-(2,3-dimethylphenyl)(phenyl)methylpiperazin-1-yl]ethyl}carbamoylethyl-4-phenylimidazole [Compound No. 56]”, the “FDSS (%, 10 μM)” value is reported as 35.38%.
For the molecule “1-N-{2-[4-(4-chlorophenyl) (phenyl)methylpiperazin-1-yl]ethyl}carbamoylethyl-4-methylimidazole [Compound No. 94]”, the “FDSS (%, 10 μM)” value was 55.99%.
Same read-out and setting: the result for “1-N-{2-[4-(4-chlorophenyl) (phenyl)methylpiperazin-1-yl]ethyl}carbamoylethyl-2-methylimidazole [Compound No. 93]” reads 43.04%.

Still in this test, the particulars now being: percent inhibition at 10 μM; HEK293 cells stably expressing α1G T-type calcium channels and Kir2.1; KCl 75 mM activation; read-out: FDSS (%, 10 μM).
Consider `O=C(CCn1cnc(-c2ccccc2)c1)NCCN1CCN(Cc2ccc(F)cc2)CC1` [Compound No. 70, 1-N-{2-[4-(4-fluorobenzyl)piperazin-1-yl]ethyl}carbamoylethyl-4-phenylimidazole], for which the inhibition at 10 µM came to 36.7%.
Consider `O=C(CCn1cnc(-c2ccccc2)c1)NCCN1CCN(c2cccc(Cl)c2)CC1` [Compound No. 79, 1-N-{2-[4-(3-chlorophenyl)piperazin-1-yl]ethyl}carbamoylethyl-4-phenylimidazole], for which the inhibition at 10 µM was determined as 36.9%.
As for `O=C(CCn1ccnc1-c1ccccc1)N1CCN(c2cccc(Cl)c2)CC1` [Compound No. 26, 1-N-[4-(3-chlorophenyl)piperazin-1-yl]carbonylethyl-2-phenylimidazole], the inhibition at 10 µM was found to be 35.1%.
Take `Cc1nccn1CCC(=O)NCCN1CCN(C(c2ccccc2)c2ccccc2)CC1` [Compound No. 96, 1-N-[2-(4-diphenylmethylpiperazin-1-yl)ethyl]carbamoylethyl-2-methylimidazole]: the inhibition at 10 µM was determined as 41.4%.
With `Cc1cccc(N2CCN(C(=O)CCn3ccnc3-c3ccccc3)CC2)c1C` [Compound No. 15, 1-N-[4-(2,3-dimethylphenyl)piperazin-1-yl]carbonylethyl-2-phenylimidazole], the inhibition at 10 µM turned out to be 34.4%.
On the same count and under the same terms, the result for `COc1ccc(CN2CCN(CCNC(=O)CCn3ccnc3C)CC2)cc1` [Compound No. 98, 1-N-{2-[4-(4-methoxybenzyl)piperazin-1-yl]ethyl}carbamoylethyl-2-methylimidazole] reads 33.8%; that for `O=C(CCn1ccnc1-c1ccccc1)N1CCN(c2ccccc2)CC1` [Compound No. 54, 1-N-(4-phenylpiperazin-1-yl)carbonylethyl-2-phenylimidazole], 24.2%; that for `Cc1ccc(N2CCN(C(=O)CCn3cnc(C)c3)CC2)c(C)c1` [Compound No. 38, 1-N-[4-(2,4-dimethylphenyl)piperazin-1-yl]carbonylethyl-4-methylimidazole], 33.8%.
On to `Cc1ccc(N2CCN(C(=O)CCn3ccnc3-c3ccccc3)CC2)c(C)c1` [Compound No. 16, 1-N-[4-(2,4-dimethylphenyl)piperazin-1-yl]carbonylethyl-2-phenylimidazole], for which the inhibition at 10 µM amounted to 34.3%.
The same measure, in the same setting: in the case of `Cc1ccc(N2CCN(CCNC(=O)CCn3ccnc3-c3ccccc3)CC2)c(C)c1` [Compound No. 62, 1-N-{2-[4-(2,4-dimethylphenyl)piperazin-1-yl]ethyl}carbamoylethyl-2-phenylimidazole] it was 40.5%; in that of `Cc1cccc(CN2CCN(CCNC(=O)CCn3cnc(-c4ccccc4)c3)CC2)c1` [Compound No. 67, 1-N-{2-[4-(3-methylbenzyl)piperazin-1-yl]ethyl}carbamoylethyl-4-phenylimidazole], 39.2%; in that of `Cc1ccc(N2CCN(CCNC(=O)CCn3cnc(-c4ccccc4)c3)CC2)c(C)c1` [Compound No. 61, 1-N-{2-[4-(2,4-dimethylphenyl)piperazin-1-yl]ethyl}carbamoylethyl-4-phenylimidazole], 44.9%.
As to `O=C(CCn1ccnc1-c1ccccc1)N1CCN(Cc2ccc(F)cc2)CC1` [Compound No. 21, 1-N-[4-(4-fluorobenzyl)piperazin-1-yl]carbonylethyl-2-phenylimidazole], the inhibition at 10 µM came to 36.8%.
Same read-out and setting: the result for `O=C(CCn1cnc(-c2ccccc2)c1)N1CCN(c2ccccc2)CC1` [Compound No. 53, 1-N-(4-phenylpiperazin-1-yl)carbonylethyl-4-phenylimidazole] reads 42.2%.
For the molecule `Cc1cccc(CN2CCN(CCNC(=O)CCn3ccnc3-c3ccccc3)CC2)c1` [Compound No. 68, 1-N-{2-[4-(3-methylbenzyl)piperazin-1-yl]ethyl}carbamoylethyl-2-phenylimidazole], the inhibition at 10 µM came out at 31.1%.
As for `COc1ccc(N2CCN(C(=O)CCn3cnc(-c4ccccc4)c3)CC2)cc1` [Compound No. 27, 1-N-[4-(4-methoxyphenyl)piperazin-1-yl]carbonylethyl-4-phenylimidazole], the inhibition at 10 µM was 37.8%.
As to `O=C(CCn1cnc(-c2ccccc2)c1)NCCN1CCN(c2ccccc2)CC1` [Compound No. 71, 1-N-[2-(4-phenylpiperazin-1-yl)ethyl]carbamoylethyl-4-phenylimidazole], the inhibition at 10 µM was found to be 30.7%.
Take `COc1ccc(N2CCN(CCNC(=O)CCn3cnc(-c4ccccc4)c3)CC2)cc1` [Compound No. 75, 1-N-{2-[4-(4-methoxyphenyl)piperazin-1-yl]ethyl}carbamoylethyl-4-phenylimidazole]: the inhibition at 10 µM was determined as 33%.
For `O=C(CCn1cnc(-c2ccccc2)c1)N1CCN(Cc2ccccc2)CC1` [Compound No. 2, 1-N-(4-benzylpiperazin-1-yl)carbonylethyl-4-phenylimidazole], the inhibition at 10 µM was 33.5%.
On the same count and under the same terms, in the case of `CCN1CCN(C(=O)CCn2ccnc2-c2ccccc2)CC1` [Compound No. 23, 1-N-(4-ethylpiperazin-1-yl)carbonylethyl-2-phenylimidazole] it was 23.4%.
Consider `O=C(CCn1cnc(-c2ccccc2)c1)NCCN1CCN(c2ccc(F)cc2)CC1` [Compound No. 73, 1-N-{2-[4-(4-fluorophenyl)piperazin-1-yl]ethyl}carbamoylethyl-4-phenylimidazole], for which the inhibition at 10 µM was 41.7%.
On the same count and under the same terms, the result for `Cc1nccn1CCC(=O)N1CCN(C(c2ccccc2)c2ccccc2)CC1` [Compound No. 35, 1-N-(4-diphenylmethylpiperazin-1-yl)carbonylethyl-2-methylimidazole] reads 35%.

In the next test the target is T1, α1G T-type calcium channels. As to the kind of experiment: T-type calcium channel activity using electrophysiological whole-cell patch-clamp technique. It counts as cell-based. Particulars: HEK293 cells expressing α1G T-type calcium channels. The protocol: as §1
2) Methods for the Measurements of T-Type Calcium Channel Activity Using an Electrophysiological Whole-Cell Patch-Clamp Technique
HEK293 cells stably expressing T-type calcium channels were cultured in DMEM (Dulbecco's modified Eagle's medium) containing 10% (v/v) fetal bovine serum and 1% penicillin/streptomycin (v/v) in humidified 5% CO2 at 36.5° C. Cells expressing α1GT-type calcium channels were selected using G-418 (0.5 mg/mL) in the culture medium. The culture medium was replaced with a fresh one every 3-4 days, and cells were subcultured every week.
Cells were seeded onto the coverglass coated with poly-L-lysine (0.5 mg/mL) for the measurements of T-type calcium channel activity 2-7 days prior to the recordings. Whole-cell recordings of T-type calcium channel currents were performed using an EPC-9 patch clamp amplifier (HEKA, Germany). Whole-cell currents were recorded using micropipettes with resistance of 3-4 MΩ with the pipette (intracellular) solution containing (in mM): 130 KCl, 11 EGTA, 5 Mg-ATP, and 10 HEPES, pH to 7.4 and with the bath (extracellular) solution containing (in mM): 140 NaCl, 2 CaCl2, and 10 HEPES, pH to 7.4. The inward currents of T-type calcium channels were evoked by the test pulses of −30 mV for 50 ms at a holding potential of −100 mV every 10 seconds.
Each compound was dissolved in dimethylsulfoxide (DMSO) as 10 mM stock solutions and diluted in the bath solution to 10 μM (containing 0.1% DMSO). […] More specifically, each compound was perfused to the bath for about 30-60 seconds, and the inhibition of the inward peak currents by a test compound was calculated as a percent inhibition from which the IC50 values were determined.
For orientation: The patch-clamp technique gives a direct electrical read-out from membranes.
Take `Cc1nccn1CCC(=O)NCCN1CCN(C(c2ccccc2)c2ccccc2)CC1` [Compound No. 96, 1-N-[2-(4-diphenylmethylpiperazin-1-yl)ethyl]carbamoylethyl-2-methylimidazole]: the IC50 is 0.39 ± 0.28 µM.
For “1-N-{2-[4-(4-chlorophenyl) (phenyl)methylpiperazin-1-yl]ethyl}carbamoylethyl-4-methylimidazole [Compound No. 94]”, the IC50 was 6.77 ± 1.45 µM.
Consider `O=C(CCn1cnc(-c2ccccc2)c1)N1CCN(c2ccccc2)CC1` [Compound No. 53, 1-N-(4-phenylpiperazin-1-yl)carbonylethyl-4-phenylimidazole], for which the IC50 turned out to be 0.00046 µM.
Same read-out and setting: the result for “1-N-{2-[4-(4-chlorophenyl) (phenyl)methylpiperazin-1-yl]ethyl}carbamoylethyl-2-methylimidazole [Compound No. 93]” reads 9.55 ± 8.7 µM.
